{
  "source": "patent US20230192683A1",
  "about": "“FUSED RING COMPOUNDS, PREPARATION METHOD THEREFOR, PHARMACEUTICAL COMPOSITIONS AND USE THEREOF” (priority 2020, published 2023)",
  "key": {"[1]": {"test_system": "rat CFA pain model", "assay": "multi-dose oral pharmacodynamic study in rat CFA pain model (Von Frey PWT)", "type": "in vivo", "description": "The efficacy of Compound 1a and Compound 14 in the rat CFA pain model was evaluated using a mechanical allodynia method.\nSD rats, 72 males, divided into 9 groups, were purchased from Beijing Vital River Laboratory Animal Technology Co., Ltd.\nThe experimental animals were adaptively reared for 3 to 7 days, and 8 of them were selected as a normal control group, and the other animals were injected with 50 µL of CFA in the center of the left hind paw for modeling. 24 hours after injection, the animals were tested for paw withdrawal threshold (PWT) basal values, and were divided into groups according to the basal values, which were solvent control group, indomethacin group, Compound 1a, 10 mpk group, Compound 1a, 30 mpk group, Compound 1a, 100 mpk group, Compound 14, 3 mpk group, Compound 14, 10 mpk group, and Compound 14, 30 mpk group, with 8 animals in each group. Subsequently, the animals were weighed and administered orally according to Table 6. All the animals were tested for paw withdrawal thresholds (PWT) using Von Frey 1, 2, and 4 hours after administration to further evaluate the efficacy of the compounds of the present invention."}, "[2]": {"target": "T1, human SSTR1 (Homo sapiens, UniProt P30872)", "T1 construct": "expressed in transfected cells; host or cells: CHO-K1 (membrane homogenates)", "T1 sequence (P30872 whole entry)": "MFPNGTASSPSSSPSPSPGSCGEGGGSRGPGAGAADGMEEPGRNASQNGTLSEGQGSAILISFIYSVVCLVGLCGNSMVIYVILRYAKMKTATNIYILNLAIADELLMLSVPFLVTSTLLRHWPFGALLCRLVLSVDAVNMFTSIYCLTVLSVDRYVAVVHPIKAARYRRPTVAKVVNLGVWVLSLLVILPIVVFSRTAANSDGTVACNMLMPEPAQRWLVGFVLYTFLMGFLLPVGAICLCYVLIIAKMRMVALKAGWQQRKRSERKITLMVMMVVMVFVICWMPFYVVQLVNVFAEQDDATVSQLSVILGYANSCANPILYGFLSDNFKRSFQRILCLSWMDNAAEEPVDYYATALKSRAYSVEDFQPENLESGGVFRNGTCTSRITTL", "assay": "biochemical", "details": "25° C., 2 hours, Cheng-Prusoff; read-out: Binding Ki (nM) SSTR1", "description": "(§1) Cell membranes were then filtered and washed, and protein-bound radioactivity was measured with a suitable instrument. The Ki values of corresponding targets were calculated using a Cheng-Prusoff formula."}, "[3]": {"target": "T2, human SSTR3 (Homo sapiens, UniProt P32745)", "T2 construct": "expressed in transfected cells; host or cells: CHO-K1 (membrane homogenates)", "T2 sequence (P32745 whole entry)": "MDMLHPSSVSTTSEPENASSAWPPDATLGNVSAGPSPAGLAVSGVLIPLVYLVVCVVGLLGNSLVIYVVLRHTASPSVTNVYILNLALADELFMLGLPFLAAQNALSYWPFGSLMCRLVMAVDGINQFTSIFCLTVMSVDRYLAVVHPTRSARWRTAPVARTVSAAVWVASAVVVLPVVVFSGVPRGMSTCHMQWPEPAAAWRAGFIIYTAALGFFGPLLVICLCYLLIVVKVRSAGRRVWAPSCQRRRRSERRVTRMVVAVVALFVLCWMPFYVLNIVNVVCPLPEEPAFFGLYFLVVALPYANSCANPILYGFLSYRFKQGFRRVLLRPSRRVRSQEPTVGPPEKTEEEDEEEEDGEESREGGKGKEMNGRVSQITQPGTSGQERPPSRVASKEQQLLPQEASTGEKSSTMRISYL", "assay": "biochemical", "details": "25° C., 2 hours, Cheng-Prusoff; read-out: Binding Ki (nM) SSTR3", "description": "as §1"}, "[4]": {"target": "T3, human SSTR5 (Homo sapiens, UniProt P35346)", "T3 construct": "expressed in transfected cells; host or cells: CHO-K1 (membrane homogenates)", "T3 sequence (P35346 whole entry)": "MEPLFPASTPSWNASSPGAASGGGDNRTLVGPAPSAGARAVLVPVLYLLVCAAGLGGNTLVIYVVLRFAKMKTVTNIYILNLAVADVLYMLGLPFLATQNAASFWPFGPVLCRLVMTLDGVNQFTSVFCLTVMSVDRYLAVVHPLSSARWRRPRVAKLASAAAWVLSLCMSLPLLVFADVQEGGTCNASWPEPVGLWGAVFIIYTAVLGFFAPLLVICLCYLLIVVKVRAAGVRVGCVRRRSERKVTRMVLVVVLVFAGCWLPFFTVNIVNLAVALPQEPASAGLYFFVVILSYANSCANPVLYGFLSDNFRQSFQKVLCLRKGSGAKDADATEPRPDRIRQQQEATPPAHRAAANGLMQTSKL", "assay": "biochemical", "details": "25° C., 2 hours, Cheng-Prusoff; read-out: Binding Ki (nM) SSTR5", "description": "as §1"}, "[5]": {"target": "T4, human SSTR2 (Homo sapiens, UniProt P30874)", "T4 construct": "expressed in transfected cells; host or cells: CHO-K1 (membrane homogenates)", "T4 sequence (P30874 whole entry)": "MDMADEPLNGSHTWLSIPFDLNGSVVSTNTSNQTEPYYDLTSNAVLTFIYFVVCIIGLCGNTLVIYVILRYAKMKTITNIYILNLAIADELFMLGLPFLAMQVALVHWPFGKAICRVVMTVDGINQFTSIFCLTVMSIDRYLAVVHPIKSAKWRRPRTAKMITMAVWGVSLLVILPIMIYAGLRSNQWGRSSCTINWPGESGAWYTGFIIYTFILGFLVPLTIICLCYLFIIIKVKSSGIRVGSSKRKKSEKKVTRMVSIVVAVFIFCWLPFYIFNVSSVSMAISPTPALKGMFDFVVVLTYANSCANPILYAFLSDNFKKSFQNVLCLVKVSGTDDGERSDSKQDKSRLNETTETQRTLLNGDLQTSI", "assay": "biochemical", "details": "25° C., 2 hours, Cheng-Prusoff; read-out: Binding Ki (nM) SSTR2", "description": "as §1"}, "[6]": {"assay": "pharmacokinetic evaluation in rats after oral and intravenous administration", "type": "in vivo", "details": "Sprague-Dawley, rat, plasma, male SD rats, oral 10.0 mg/kg, intravenous 1.0 mg/kg, route and unit inferred", "description": "Using rats as test animals, an LC/MS/MS method was used to determine the drug concentrations in plasma at different times after oral and intravenous administration of Compound 1a and Compound 14 in the rats. The pharmacokinetic behavior of the compounds of the present invention in rats was studied, and pharmacokinetic characteristics thereof were evaluated.\nFor each compound, 6 healthy adult SD (Sprague-Dawley) rats, male, were divided into oral and intravenous administration groups, 3 rats in each group, purchased from Shanghai SIPPR/BK Laboratory Animal Co., Ltd., animal production license number: SCXK (Shanghai) 2008-0016.\nA specific amount of the drug was weighed and dissolved in 5% dimethylacetamide (DMA) + 5% polyethylene glycol-15 hydroxystearate (solutol) + 90% saline solution to prepare a 0.2 mg/mL solution.\nThe SD rats were fasted overnight and were administered orally and intravenously. The oral dose was 10.0 mg/kg, and the intravenous dose was 1.0 mg/kg.\nCompound 1a and Compound 14 were administered orally and intravenously to the rats. At 0.083, 0.25, 0.5, 1, 2, 4, 8, and 24 hours after administration, 0.2 mL of blood was collected from the submandibular vein or other suitable blood vessels, placed in K2-EDTA tubes, and then stored on ice. Within one hour, the plasma was separated by centrifugation at 6,800 g for 6 minutes at 2-8° C., and stored at -80° C. for LC/MS/MS analysis. The rats were fed 4 hours after administration."}, "[7]": {"test_system": "rat CFA pain model", "assay": "single-dose pharmacodynamic study in rat CFA pain model (Von Frey PWT)", "type": "in vivo", "description": "Each male SD rat (7-8 weeks old) was injected with 50 microliters of CFA in the center of the left hind paw. A PWT basal value test was conducted 24 hours after modeling, and the drugs were administered after randomization.\nThere were 8 animals in each group, and the animals were weighed and administered according to Table 4.\nFor all groups of animals, paw withdrawal thresholds (PWTs) of the animals were tested using Von Frey after 1 h and 3 h of single administration."}, "[8]": {"target": "T5, human SSTR4 (Homo sapiens, UniProt P31391)", "T5 construct": "expressed in transfected cells", "T5 sequence (P31391 whole entry)": "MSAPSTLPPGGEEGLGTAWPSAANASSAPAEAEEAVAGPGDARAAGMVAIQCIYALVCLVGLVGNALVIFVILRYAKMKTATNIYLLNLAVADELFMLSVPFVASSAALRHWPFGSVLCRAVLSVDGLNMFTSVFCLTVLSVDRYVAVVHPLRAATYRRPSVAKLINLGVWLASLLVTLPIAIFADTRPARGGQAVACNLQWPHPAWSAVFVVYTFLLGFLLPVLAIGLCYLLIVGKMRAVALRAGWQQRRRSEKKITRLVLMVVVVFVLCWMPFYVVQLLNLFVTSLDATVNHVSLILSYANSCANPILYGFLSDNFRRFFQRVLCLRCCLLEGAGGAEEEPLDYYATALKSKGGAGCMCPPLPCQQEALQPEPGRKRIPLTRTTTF", "assay": "radioligand binding assay, [125I]Somatostatin-14, CHO-K1 membranes", "description": "as §1"}},
  "note": "Marks after values point to notes of the source that are not given here.",
  "data": [
    {"smiles": "CSc1cccn2c(C(C)(C)NC(=O)[C@H]3[C@@H]4CNC[C@@H]43)ncc12", "note": "[Compound 1a, (1R,5S,6R)-N-(2-(8-(Methylthio)Imidazo[1,5-a]Pyridin-3-yl)Prop-2-yl)-3-Azabicyclo[3.1.0]Hexane-6-Carboxamide]", "values": [
      {"measurement": "Paw withdrawal threshold (PWT(g)) (average) 0 hours", "setting": "[1]; 10 mg/kg oral group", "result": 3.016, "unit": "g"},
      {"measurement": "Paw withdrawal threshold (PWT(g)) (average) 1 hour", "setting": "[1]; 10 mg/kg oral", "result": 4.020, "unit": "g"},
      {"measurement": "Paw withdrawal threshold (PWT(g)) (average) 2 hours", "setting": "[1]; 10 mg/kg oral", "result": "6.722 * g"},
      {"measurement": "Paw withdrawal threshold (PWT(g)) (average) 4 hours", "setting": "[1]; 10 mg/kg oral", "result": "8.438 **** g"},
      {"measurement": "Paw withdrawal threshold (PWT(g)) (average) 0 hours", "setting": "[1]; 30 mg/kg oral group", "result": 3.118, "unit": "g"},
      {"measurement": "Paw withdrawal threshold (PWT(g)) (average) 1 hour", "setting": "[1]; 30 mg/kg oral", "result": 4.173, "unit": "g"},
      {"measurement": "Paw withdrawal threshold (PWT(g)) (average) 2 hours", "setting": "[1]; 30 mg/kg oral", "result": "7.637 ** g"},
      {"measurement": "Paw withdrawal threshold (PWT(g)) (average) 4 hours", "setting": "[1]; 30 mg/kg oral", "result": "10.958 **** ### g"},
      {"measurement": "Paw withdrawal threshold (PWT(g)) (average) 0 hours", "setting": "[1]; 100 mg/kg oral group", "result": 3.118, "unit": "g"},
      {"measurement": "Paw withdrawal threshold (PWT(g)) (average) 1 hour", "setting": "[1]; 100 mg/kg oral", "result": 3.855, "unit": "g"},
      {"measurement": "Paw withdrawal threshold (PWT(g)) (average) 2 hours", "setting": "[1]; 100 mg/kg oral", "result": "9.549 **** g"},
      {"measurement": "Paw withdrawal threshold (PWT(g)) (average) 4 hours", "setting": "[1]; 100 mg/kg oral", "result": "9.687 **** # g"},
      {"measurement": "efficacy compared with positive control compound indomethacin (in words)", "setting": "[1]; 30 mpk and 100 mpk groups, oral, 4 hours after administration", "result": "significantly better than that of the positive control compound indomethacin"},
      {"measurement": "inhibition of CFA-induced mechanical hyperalgesia (in words)", "setting": "[1]; oral 10, 30, 100 mg/kg, 2 and 4 hours after administration", "result": "dose-dependently inhibit"},
      {"measurement": "onset dose", "setting": "[1]; oral, inhibition of CFA-induced mechanical hyperalgesia", "result": 10, "unit": "mg/kg"},
      {"measurement": "Ki", "setting": "[2]", "result": "> 8280", "unit": "nM"},
      {"measurement": "Ki", "setting": "[3]", "result": "> 3420", "unit": "nM"},
      {"measurement": "Ki", "setting": "[4]", "result": "> 5650", "unit": "nM"},
      {"measurement": "Ki", "setting": "[5]", "result": "> 5310", "unit": "nM"},
      {"measurement": "half-life", "setting": "[6]", "result": "2.58 ± 1.07", "unit": "h"},
      {"measurement": "Vd", "setting": "[6]; read-out: Apparent volume of distribution", "result": "5.12 ± 1.14", "unit": "L/kg"},
      {"measurement": "clearance", "setting": "[6]; read-out: Clearance rate", "result": "53 ± 1.76", "unit": "mL/min/kg"},
      {"measurement": "Mechanical allodynia test (PWT (g), mean) Baseline", "setting": "[7]; 10 mg/kg I.P. group, baseline 24 h after CFA, before administration", "result": 3.554, "unit": "g"},
      {"measurement": "Mechanical allodynia test (PWT (g), mean) 1 hour", "setting": "[7]; 10 mg/kg I.P., 1 hour after single administration", "result": "6.484 * # g"},
      {"measurement": "efficacy compared with Control Compound A (in words)", "setting": "[7]; 10 mg/kg I.P., 1 hour and 3 hours after administration", "result": "significantly better than that of Control Compound A"},
      {"measurement": "Mechanical allodynia test (PWT (g), mean) 3 hours", "setting": "[7]; 10 mg/kg I.P., 3 hours after single administration", "result": "8.371 **** g"},
      {"measurement": "inhibition of CFA-induced mechanical allodynia (in words)", "setting": "[7]; 10 mg/kg I.P., single administration, FIG. 1", "result": "inhibited CFA-induced mechanical allodynia"},
      {"measurement": "Ki", "setting": "[8]", "result": 0.00552, "unit": "µM"},
      {"measurement": "SSTR4 selectivity (in words)", "setting": "[8]; binding selectivity to SSTRs 1-5", "result": "the best"},
      {"measurement": "SSTR4 /SSTR 1", "setting": "[8]; ratio of binding Ki values, selectivity", "result": "> 1500"}
    ]}
  ]
}
